Measurements taken from the Kinase Knowledgebase extract (Sharma et al. 2016).

These compounds were tested against CDK2 (human) (UniProt P24941) (assay: Enzyme Assay).

IC50, ≤ 0.1 µM:
CC(C)(C)c1cnc(CSc2cnc(NC(=O)Nc3ccc(OCCCC(=O)NO)cc3)s2)o1, CC(C)(C)c1cnc(CSc2cnc(NC(=O)CCCC(=O)NO)s2)o1, CC(C)(C)c1cnc(CSc2cnc(NC(=O)Cc3ccc(OCCCCC(=O)NO)cc3)s2)o1, CC(C)(C)c1cnc(CSc2cnc(NC(=O)c3ccc(OCCCCCCC(=O)NO)cc3)s2)o1, CC(C)(C)c1cnc(CSc2cnc(NC(=O)Cc3ccc(OCCC(=O)NO)cc3)s2)o1, CC(C)c1cnc(CSc2cnc(NC(=O)Cc3ccc(OCCCCCCC(=O)NO)cc3)s2)o1, CC(C)(C)c1cnc(CSc2cnc(NC(=O)CCCNCCC(=O)NO)s2)o1, CC(C)(C)c1cnc(CSc2cnc(NC(=O)C3CCN(CCCCCC(=O)NO)CC3)s2)o1, CNC(=O)CCCCCOc1ccc(CC(=O)Nc2ncc(SCc3ncc(C(C)(C)C)o3)s2)cc1, CC(C)(C)c1cnc(CSc2cnc(NC(=O)C3CCN(c4ncc(C(=O)NO)cn4)CC3)s2)o1, CC(C)(C)c1cnc(CSc2cnc(NC(=O)Oc3ccc(OCCCC(=O)NO)cc3)s2)o1, CC(C)(C)c1cnc(CSc2cnc(NC(=O)c3ccc(OCCCCC(=O)NO)cc3)s2)o1, CC(C)(C)c1cnc(CSc2cnc(NCC3CCN(c4ncc(C(=O)NO)cn4)CC3)s2)o1, CC(C)(C)c1cnc(CSc2cnc(NC(=O)C3CCN(CCCC(=O)NO)CC3)s2)o1, CC(C)(C)c1cnc(CSc2cnc(NC(=O)c3ccc(OCCCCCC(=O)NO)cc3)s2)o1, CC(C)(C)c1cnc(CSc2cnc(NC(=O)C(C)(C)c3ccc(OCCCC(=O)NO)cc3)s2)o1, CC(C)(C)c1cnc(CSc2cnc(NC(=O)c3cccc(/C=C/C(=O)NO)c3)s2)o1, CC(Sc1cnc(NC(=O)Cc2ccc(OCCCC(=O)NO)cc2)s1)c1ncc(C(C)(C)C)o1 (configuration not stated), CC(C(=O)Nc1ncc(SCc2ncc(C(C)(C)C)o2)s1)c1ccc(OCCCC(=O)NO)cc1 (configuration not stated), CC(C)(C)c1cnc(CSc2cnc(NC(=O)CCCCCCC(=O)NO)s2)o1, CC(C)(C)c1cnc(CSc2cnc(NC(=O)Cc3ccc(OCCCC(=O)NO)cc3)s2)o1, CC(C)(C)c1cnc(CSc2cnc(NC(=O)c3ccc(/C=C/C(=O)NO)cc3)s2)o1, CC(C)(C)c1cnc(CSc2cnc(NC(=O)CCCNCCCCCCC(=O)NO)s2)o1, CC(C)(C)c1cnc(CSc2cnc(NC(=O)C3CCN(CCCCCCC(=O)NO)CC3)s2)o1, CC(C)(C)c1cnc(CSc2cnc(NC(=O)C3CCN(CCCCC(=O)NO)CC3)s2)o1, CC(C)(C)c1cnc(CSc2cnc(NC(=O)c3ccc(OCCCC(=O)NO)cc3)s2)o1, CC(C)(C)c1cnc(CSc2cnc(NC(=O)CCCCC(=O)NO)s2)o1
